Experimental data as given in ChEMBL document CHEMBL1133822, “Studies on 3-deoxy-D-manno-octulosonic acid 8-phosphate synthase using chorismate mutase inhibitors” (Bioorg Med Chem Lett, 2001).

Columns and labels:
[1] = Inhibitory concentration against KDO 8-P synthase
[2] = kinact was determined.
[3] = Binding affinity constant against KDO 8-P synthase
[4] = Inhibitory concentration against Chorismate mutase; design: species or system Bacillus subtilis

Row | SMILES | IC50 [1] | K inact [2] | Ki [3] | IC50 [4]
1 | CCCC/N=C(\S)C(O)C(O)C(O)C(O)CO (stereo not given) | 0.4 mM | 0.01 | 2.3 mM | 
2 | O=C(O)C12CCC(C(=O)O)(CC1=O)C(=O)C2 | > 1 mM |  |  | 
3 | O=C(O)C1C2C=CC(C3CC23)C1C(=O)O (stereo not given) | > 1 mM |  |  | 
4 | O=C(O)C1=C(C(=O)O)C2C=CC1[C@@H]1C(C(=O)O)[C@H]21 (stereo not given in full) | > 0.5 mM |  |  | 
5 | CC1(C(=O)[O-])CCC(C(=O)[O-])C1(C)C.[Na+].[Na+] (stereo not given) | > 1 mM |  |  | 
6 | O=C(O)CC1(O)CCCCC1 | > 1 mM |  |  | 0.35 mM
7 | O=C(O)C1C2C=CC(CCC2)C1C(=O)O (stereo not given) | > 1 mM |  |  | 
